Reference: US10251394B2, “Molecules having pesticidal utility, and intermediates, compositions, and processes, related thereto” (Dow AgroSciences LLC, priority 2016, dated 2019)

Columns and labels:
[1] = tested on: Cabbage Looper (Trichoplusia ni); assay: Bioassay on Cabbage Looper (CL), 128-well diet tray assay; assay type: in vivo; settings: Cabbage Looper, Table ABC, read-out: CL rating
Summary of the method: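 Mortality after five to seven days at 25° C (14:10 photoperiod), averaged over eight wells per compound. Diet in each well carried 50 μg/cm^2 of dried test molecule and received one to five second-instar larvae.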

[2] = tested on: Beet Armyworm (Spodoptera exigua); assay: Bioassay on Beet Armyworm (BAW), 128-well diet tray assay; assay type: in vivo; settings: Beet Armyworm, Table ABC, read-out: BAW rating
Summary of the method: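 Percent mortality, averaged over eight wells, was scored after five to seven days at 25° C under 14:10 light-dark. Each well's diet carried 50 μg/cm^2 of test molecule applied in acetone-water (90:10) and dried before one to five second-instar larvae were added.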

SMILES | pest or weed control at 50 µg/cm2 [1] | pest or weed control at 50 µg/cm2 [2]
O=C(NC1(C(=O)NCC2CCC2)CC1)c1ccc(/C(F)=C/C(c2cc(Cl)c(Cl)c(Cl)c2)C(F)(F)F)cc1C(F)(F)F (stereo not drawn) [F93, (Z)—N-(1-((Cyclobutylmethyl)carbamoyl)cyclopropyl)-4-(1,4,4,4-tetrafluoro-3-(3,4,5-trichlorophenyl)but-1-en-1-yl)-2-(trifluoromethyl)benzamide] | 50 to 100% | 50 to 100%
C#CCNC(=O)C1(NC(=O)c2ccc(/C(F)=C/C(c3cc(Cl)c(Cl)c(Cl)c3)C(F)(F)F)cc2C(F)(F)F)CC1 (stereo not drawn) [F94, (Z)—N-(1-(Prop-2-yn-1-ylcarbamoyl)cyclopropyl)-4-(1,4,4,4-tetrafluoro-3-(3,4,5-trichlorophenyl)but-1-en-1-yl)-2-(trifluoromethyl)benzamide] | 50 to 100% | 50 to 100%
O=C(NC1(C(=O)NCC(F)F)CC1)c1ccc(/C(F)=C/C(c2cc(Cl)c(Cl)c(Cl)c2)C(F)(F)F)cc1C(F)(F)F (stereo not drawn) [F95, (Z)—N-(1-((2,2-Difluoroethyl)carbamoyl)cyclopropyl)-4-(1,4,4,4-tetrafluoro-3-(3,4,5-trichlorophenyl)but-1-en-1-yl)-2-(trifluoromethyl)benzamide] | 50 to 100% | 50 to 100%
CN(CC(F)(F)F)C(=O)C1(NC(=O)c2ccc(/C(F)=C/C(c3cc(Cl)c(Cl)c(Cl)c3)C(F)(F)F)cc2C(F)(F)F)CC1 (stereo not drawn) [F96, (Z)—N-(1-(Methyl(2,2,2-trifluoroethyl)carbamoyl)cyclopropyl)-4-(1,4,4,4-tetrafluoro-3-(3,4,5-trichlorophenyl)but-1-en-1-yl)-2-(trifluoromethyl)benzamide] | 50 to 100% | 50 to 100%
CN(CC(F)(F)F)C(=O)C1(NC(=O)c2ccc(/C(F)=C/C(c3cc(Cl)c(Cl)c(Cl)c3)C(F)(F)F)cc2Cl)CC1 (stereo not drawn) [F97, (Z)-2-Chloro-N-(1-(methyl(2,2,2-trifluoroethyl)carbamoyl)cyclopropyl)-4-(1,4,4,4-tetrafluoro-3-(3,4,5-trichlorophenyl)but-1-en-1-yl)benzamide] | 50 to 100% | 50 to 100%
CC[C@@H](NC(=O)c1ccc(/C(F)=C/C(c2cc(Cl)c(Cl)c(Cl)c2)C(F)(F)F)cc1C(F)(F)F)C(=O)NCC(F)(F)F (stereo partly drawn) [F98, N—((R)-1-Oxo-1-((2,2,2-trifluoroethyl)amino)butan-2-yl)-4-((Z)-1,4,4,4-tetrafluoro-3-(3,4,5-trichlorophenyl)but-1-en-1-yl)-2-(trifluoromethyl)benzamide] | 50 to 100% | 50 to 100%
CC[C@@H](NC(=O)c1ccc(/C(F)=C/C(c2cc(Cl)c(Cl)c(Cl)c2)C(F)(F)F)cc1Cl)C(=O)NCC(F)(F)F (stereo partly drawn) [F100, 2-Chloro-N—((R)-1-oxo-1-((2,2,2-trifluoroethyl)amino)butan-2-yl)-4-((Z)-1,4,4,4-tetrafluoro-3-(3,4,5-trichlorophenyl)but-1-en-1-yl)benzamide] | 50 to 100% | 50 to 100%
O=C(NC1(C(=O)NC2CC(F)(F)C2)CC1)c1ccc(/C(F)=C/C(c2cc(Cl)c(Cl)c(Cl)c2)C(F)(F)F)cc1C(F)(F)F (stereo not drawn) [F101, (Z)—N-(1-((3,3-Difluorocyclobutyl)carbamoyl)cyclopropyl)-4-(1,4,4,4-tetrafluoro-3-(3,4,5-trichlorophenyl)but-1-en-1-yl)-2-(trifluoromethyl)benzamide] | 50 to 100% | 50 to 100%
O=C(NC1CCCN(CC(F)(F)F)C1=O)c1ccc(/C(F)=C/C(c2cc(Cl)c(Cl)c(Cl)c2)C(F)(F)F)cc1C(F)(F)F (stereo not drawn) [F104, (Z)—N-(2-Oxo-1-(2,2,2-trifluoroethyl)piperidin-3-yl)-4-(1,4,4,4-tetrafluoro-3-(3,4,5-trichlorophenyl)but-1-en-1-yl)-2-(trifluoromethyl)benzamide] | 50 to 100% | 50 to 100%
C[C@@H](NC(=O)c1ccc(/C(F)=C/C(c2cc(Cl)cc(Cl)c2)C(F)(F)F)cc1C(F)(F)F)C(=O)NCC(F)(F)F (stereo partly drawn) [F105, 4-((Z)-3-(3,5-Dichlorophenyl)-1,4,4,4-tetrafluorobut-1-en-1-yl)-N—((R)-1-oxo-1-((2,2,2-trifluoroethyl)amino)propan-2-yl)-2-(trifluoromethyl)benzamide] | 50 to 100% | 50 to 100%
O=C(N[C@@H]1CON(CC(F)(F)F)C1=O)c1ccc(/C(F)=C/C(c2cc(Cl)c(Cl)c(Cl)c2)C(F)(F)F)cc1C(F)(F)F (stereo partly drawn) [F106, N—((R)-3-Oxo-2-(2,2,2-trifluoroethyl)isoxazolidin-4-yl)-4-((Z)-1,4,4,4-tetrafluoro-3-(3,4,5-trichlorophenyl)but-1-en-1-yl)-2-(trifluoromethyl)benzamide] | 50 to 100% | 50 to 100%
O=C(CNC(=O)c1ccc(/C(F)=C/C(c2ccc(Br)c(Br)c2)C(F)(F)F)cc1C(F)(F)F)NCC(F)(F)F (stereo not drawn) [F107, (Z)-4-(3-(3,4-Dibromophenyl)-1,4,4,4-tetrafluorobut-1-en-1-yl)-N-(2-oxo-2-((2,2,2-trifluoroethyl)amino)ethyl)-2-(trifluoromethyl)benzamide] | 50 to 100% | 50 to 100%
CN(CC(F)(F)F)C(=O)C1(NC(=O)c2ccc(/C(F)=C/C(c3cc(Br)cc(Br)c3)C(F)(F)F)cc2C(F)(F)F)CC1 (stereo not drawn) [F108, (Z)-4-(3-(3,5-Dibromophenyl)-1,4,4,4-tetrafluorobut-1-en-1-yl)-N-(1-(methyl(2,2,2-trifluoroethyl)carbamoyl)cyclopropyl)-2-(trifluoromethyl)benzamide] | 50 to 100% | 50 to 100%
C[C@@H](NC(=O)c1ccc(/C(F)=C/C(c2cc(Cl)cc(Br)c2)C(F)(F)F)cc1C(F)(F)F)C(=O)NCC(F)(F)F (stereo partly drawn) [F109] | 50 to 100% | 50 to 100%
O=C(CNC(=O)c1ccc(/C(F)=C/C(c2cc(Cl)c(Br)c(Cl)c2)C(F)(F)F)cc1C(F)(F)F)NCC(F)(F)F (stereo not drawn) [F110] | 50 to 100% | 50 to 100%
C=Cc1c(Cl)cc(C(/C=C(\F)c2ccc(C(=O)NC3(C(=O)N(C)CC(F)(F)F)CC3)c(C(F)(F)F)c2)C(F)(F)F)cc1Cl (stereo not drawn) [F111, (Z)-4-(3-(3,5-Dichloro-4-vinylphenyl)-1,4,4,4-tetrafluorobut-1-en-1-yl)-N-(1-(methyl(2,2,2-trifluoroethyl)carbamoyl)cyclopropyl)-2-(trifluoromethyl)benzamide] | 50 to 100% | 50 to 100%
C[C@@H](NC(=O)c1ccc(/C(F)=C/C(c2ccc(Cl)c(Cl)c2)C(C)(F)F)cc1C(F)(F)F)C(=O)NCC(F)(F)F (stereo partly drawn) [F112, 4-((Z)-3-(3,4-Dichlorophenyl)-1,4,4-trifluoropent-1-en-1-yl)-N—((R)-1-oxo-1-((2,2,2-trifluoroethyl)amino)propan-2-yl)-2-(trifluoromethyl)benzamide] | 50 to 100% | 50 to 100%
CN(CC(F)(F)F)C(=O)C1(NC(=O)c2ccc(/C(F)=C/C(c3cc(Cl)c(Br)c(Cl)c3)C(F)(F)F)cc2C(F)(F)F)CC1 (stereo not drawn) [F117, (Z)-4-(3-(4-Bromo-3,5-dichlorophenyl)-1,4,4,4-tetrafluorobut-1-en-1-yl)-N-(1-(methyl(2,2,2-trifluoroethyl)carbamoyl)cyclopropyl)-2-(trifluoromethyl)benzamide] | 50 to 100% | 50 to 100%
C[C@@H](NC(=O)c1ccc(/C(F)=C/C(c2ccc(Cl)c(Cl)c2)C(F)(F)F)cc1Br)C(=O)NCC(F)(F)F (stereo partly drawn) [F123, 2-Bromo-4-((Z)-3-(3,4-dichlorophenyl)-1,4,4,4-tetrafluorobut-1-en-1-yl)-N—((R)-1-oxo-1-((2,2,2-trifluoroethyl)amino)propan-2-yl)benzamide] | 50 to 100% | 50 to 100%
O=C(CNC(=O)c1ccc(/C(F)=C/C(c2ccc(Cl)c(Cl)c2)C(F)(F)F)cc1Br)NCC(F)(F)F (stereo not drawn) [F124, (Z)-2-Bromo-4-(3-(3,4-dichlorophenyl)-1,4,4,4-tetrafluorobut-1-en-1-yl)-N-(2-oxo-2-((2,2,2-trifluoroethyl)amino)ethyl)benzamide] | 50 to 100% | 50 to 100%
O=C(NC1(C(=O)NCC(F)(F)F)CC1)c1ccc(/C(F)=C/C(c2ccc(Cl)c(Cl)c2)C(F)(F)F)cc1Br (stereo not drawn) [F125, (Z)-2-Bromo-4-(3-(3,4-dichlorophenyl)-1,4,4,4-tetrafluorobut-1-en-1-yl)-N-(1-((2,2,2-trifluoroethyl)carbamoyl)cyclopropyl)benzamide] | 50 to 100% | 50 to 100%
CC[C@@H](NC(=O)c1ccc(/C(F)=C/C(c2cc(Cl)c(Cl)c(Cl)c2)C(F)(F)F)cc1C(F)(F)F)C(N)=O (stereo partly drawn) [F126, N—((R)-1-Amino-1-oxobutan-2-yl)-4-((Z)-1,4,4,4-tetrafluoro-3-(3,4,5-trichlorophenyl)but-1-en-1-yl)-2-(trifluoromethyl)benzamide] | 50 to 100% | 50 to 100%
NC(=O)CNC(=O)c1ccc(/C(F)=C/C(c2cc(Cl)c(Cl)c(Cl)c2)C(F)(F)F)cc1C(F)(F)F (stereo not drawn) [F127, (Z)—N-(2-Amino-2-oxoethyl)-4-(1,4,4,4-tetrafluoro-3-(3,4,5-trichlorophenyl)but-1-en-1-yl)-2-(trifluoromethyl)benzamide] | 50 to 100% | 50 to 100%
CC(F)(F)C(/C=C(\F)c1ccc(C(=O)NC2(C(=O)NCC(F)(F)F)CC2)c(C(F)(F)F)c1)c1ccc(Cl)c(Cl)c1 (stereo not drawn) [F128, (Z)-4-(3-(3,4-Dichlorophenyl)-1,4,4-trifluoropent-1-en-1-yl)-N-(1-((2,2,2-trifluoroethyl)carbamoyl)cyclopropyl)-2-(trifluoromethyl)benzamide] | 50 to 100% | 50 to 100%
